Results on 2 substances are retold here after US20120289501A1, “Benzene-fused 6-membered oxygen-containing heterocyclic derivatives of bicyclic heteroaryls” (NOVARTIS AG, priority 2009, published 2012).

The target of this assay is IGF1R (Homo sapiens, UniProt P08069). Kind of assay: Cellular IGF-1R assay: inhibition of IGF1R phosphorylation in transduced Hek293 cells, capture ELISA (MSD). The arrangement: Hek293 cells transduced with the corresponding receptors; expressed in transfected cells; host or cells: Hek293 (Hek293-IGF1R). Type of assay: cell-based. In outline: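 Serum-starved Hek293 cells transduced with IGF1R or InsR were pre-incubated 1 h with 3-fold dilutions from 10 μM (0.1% DMSO), then stimulated 10 min with 1.0 ng/μL IGF or 5.0 ng/μL insulin. pTyr1135/1136 (pINSR Tyr1150/1151) was read by MSD capture ELISA, normalised to stimulated vs unstimulated window; IC50 from 4-parameter fit.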
Sequence of IGF1R (P08069 31-1367): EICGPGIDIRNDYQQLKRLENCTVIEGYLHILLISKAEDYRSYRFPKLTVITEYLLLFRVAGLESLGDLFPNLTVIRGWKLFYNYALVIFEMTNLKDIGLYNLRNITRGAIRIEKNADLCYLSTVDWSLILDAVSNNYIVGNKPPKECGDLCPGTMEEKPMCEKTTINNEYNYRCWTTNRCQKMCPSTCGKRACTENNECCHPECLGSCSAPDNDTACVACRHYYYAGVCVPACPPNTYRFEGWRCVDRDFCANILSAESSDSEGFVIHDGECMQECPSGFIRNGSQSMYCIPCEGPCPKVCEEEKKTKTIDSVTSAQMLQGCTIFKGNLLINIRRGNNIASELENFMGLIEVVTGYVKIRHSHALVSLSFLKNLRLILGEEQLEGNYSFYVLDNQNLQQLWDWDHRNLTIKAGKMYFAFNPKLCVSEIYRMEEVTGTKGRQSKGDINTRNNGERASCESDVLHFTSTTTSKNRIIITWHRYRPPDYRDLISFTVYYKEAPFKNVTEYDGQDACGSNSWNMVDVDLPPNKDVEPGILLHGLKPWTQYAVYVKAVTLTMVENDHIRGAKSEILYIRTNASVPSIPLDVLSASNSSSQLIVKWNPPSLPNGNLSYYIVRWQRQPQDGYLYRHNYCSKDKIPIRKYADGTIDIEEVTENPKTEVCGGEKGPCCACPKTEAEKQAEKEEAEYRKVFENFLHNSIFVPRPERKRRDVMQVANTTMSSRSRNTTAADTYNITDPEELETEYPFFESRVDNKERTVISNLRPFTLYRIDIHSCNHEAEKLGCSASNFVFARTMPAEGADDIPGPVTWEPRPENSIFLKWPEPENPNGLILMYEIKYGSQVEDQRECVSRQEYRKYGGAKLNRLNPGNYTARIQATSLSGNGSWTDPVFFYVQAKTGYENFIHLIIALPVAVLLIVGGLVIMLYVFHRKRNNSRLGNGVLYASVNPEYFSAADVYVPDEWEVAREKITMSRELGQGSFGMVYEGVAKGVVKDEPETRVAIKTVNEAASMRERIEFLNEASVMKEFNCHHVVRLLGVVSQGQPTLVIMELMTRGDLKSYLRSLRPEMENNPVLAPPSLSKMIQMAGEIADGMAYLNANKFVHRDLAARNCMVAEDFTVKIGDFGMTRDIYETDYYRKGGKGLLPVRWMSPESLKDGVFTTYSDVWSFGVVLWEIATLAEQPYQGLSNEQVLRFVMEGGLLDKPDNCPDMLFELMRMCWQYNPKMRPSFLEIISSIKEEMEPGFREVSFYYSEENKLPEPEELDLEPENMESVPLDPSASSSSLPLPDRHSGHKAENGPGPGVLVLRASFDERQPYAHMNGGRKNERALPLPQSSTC

As to “(R,S)—(Z)-3-[8-Amino-1-(2-phenyl-chroman-7-yl)-imidazo[1,5-a]pyrazin-3-yl]-1-hydroxymethyl-cyclobutanol and (R,S)-(E)-3-[8-amino-1-(2-phenyl-chroman-7-yl)-imidazo[1,5-a]pyrazin-3-yl]-1-hydroxymethyl-cyclobutanol [Example 5]”, the IC50 stood at 0.1 µM.

As for “(R,S)—N-{cis-3-[4-Amino-5-(2-phenyl-chroman-7-yl)-pyrrolo[2,3-d]pyrimidin-7-yl]-cyclobutylmethyl}-methanesulfonamide [Example 17]”, half-maximal inhibition (IC50) was put at 0.024 µM.

By IC50 is commonly meant the concentration that inhibits the measured activity by half. Lower therefore signals greater potency.
